From patent publication US20210338686A1, “COMBINATION CANCER THERAPY WITH PENTAAZA MACROCYCLIC RING COMPLEX AND PLATINUM-BASED ANTICANCER AGENT” (Galera Labs, LLC, priority 2018, published 2021)

What was measured:
[1] = tested on: experimental model of colitis; conditions: rats; Cuzzocrea et al. 2001; cited from earlier work
[2] = tested on: acute, radiation-induced oral mucositis; conditions: hamster oral mucositis; Murphy et al. 2008; cited from earlier work
[3] = tested on: lethal total body irradiation; conditions: adult mice, Thompson et al. 2010; cited from earlier work
inflammation = conditions: rat model; Salvemini et al. 1999; cited from earlier work
[4] = tested on: collagen-induced arthritis; conditions: rat collagen-induced arthritis; Salvemini et al. 2001; cited from earlier work
[5] = tested on: H460 human non-small cell lung carcinoma (NSCLC) cells; assay: Survival of H460 cells in culture with GC4419 and cisplatin; format: cell-based; conditions: 24 μM GC4419 added to cisplatin (indicated concentrations), 120 hrs, vs cisplatin alone; FIG. 1
Procedure: After 120 hrs the surviving fraction of cells was determined.

[6] = tested on: H1299 human NSCLC cells, modified to inducibly overexpress catalase (CAT) (H1299CAT); assay: Survival of H1299CAT cells with GC4419, cisplatin and catalase overexpression; format: cell-based; conditions: 24 μM GC4419 added to cisplatin, 120 hrs, FIG. 2
Excerpt: CAT overexpression in this line (H1299CAT) was induced by administration of doxycycline, which turned on transcription of the inserted catalase genes.

[7] = tested on: PARP (poly (ADP ribosyl) polymerase) in H460 NSCLC cells; assay: PARP activation in H460 cells (Western blot, 89 kd active / 116 kd inactive form); format: cell-based, human; conditions: 24 hr
Excerpt: PARP is a nuclear enzyme involved in DNA repair of single strand breaks and is activated following cell stress including chemotherapy and irradiation.

[8] = tested on: PARP in H1299 (wild type) NSCLC cells; assay: PARP activation in H1299 (wild type) cells (Western blot); format: cell-based, human; conditions: 24 hr
PARP in H1299CAT cells = assay: PARP activation in H1299CAT cells with doxycycline induction of CAT overexpression; format: cell-based, human; conditions: CAT induced with doxycycline, 24 hr
Excerpt: When treated with doxcycline, H1299CAT cells express greater levels of human catalase (CAT) than the “parent” cells, H1299 (wild type), eliminating all or part of the H2O2 generated from superoxide by GC4419 or other Mn pentaazamacrocyclic dismutase mimetcs.

[9] = tested on: H460 and H1299 (wild type) cells; assay: Total reactive oxygen species (CellROX probe, flow cytometer); format: cell-based, human; conditions: FIGS. 7A-7D
Procedure: After the treatments and incubations CellROX fluorogenic probes for total ROS were added for 30 minutes continued incubation and the CellROX signal was measured using a flow cytometer.

[10] = tested on: H460 and H1299 (wild type) cells; assay: Mitochondrial superoxide (MitoSOX probe, flow cytometer); format: cell-based, human; conditions: FIGS. 8A-8D
[11] = tested on: H460 and H1299 (wild type) cells; assay: Hydrogen peroxide (P0-1 probe); format: cell-based, human; conditions: FIGS. 9A-9D
[12] = tested on: cisplatin-induced acute kidney injury (AKI) model, male C57BL/6J mice; assay: Cisplatin-induced acute kidney injury (AKI) model in mice; format: in vivo
Excerpt: 4 month old male C57BL/6J mice (young) were purchased from Jackson Laboratories and 18 month old mice (old) were obtained as collaboration with Dr. Amy Sindler (University of Iowa) from the National institute of Aging. All mice were maintained in accordance with ACURF approval #4121235 at the University of Iowa Animal Care facility. Mice were maintained on normal diets and water ad libitum through the course of the experiment.
Animals were weighed every other day following the start of treatment with GC4419.

[13] = tested on: athymic female Nu/Nu (nude) mice implanted with SQ20B human head and neck squamous cell carcinoma cells; assay: Cisplatin-induced hematotoxicity in nude mice bearing SQ20B tumors; format: in vivo; conditions: 10 mg/kg GC4419 every day added to cisplatin + IR
Procedure: 7 week old athymic female Nu/Nu (nude) mice were implanted in a hind leg with SQ20B human head and neck squamous cell carcinoma cells. […] Mice were assessed for blood counts by tail vein blood collection either 2 days or 2 weeks after the treatment period.

[14] = tested on: VEGFr inhibitor-induced pulmonary disease; conditions: rat model; Tuder et al. 2003; cited from earlier work
[15] = tested on: oral mucositis in head-and-neck cancer patients; conditions: head-and-neck cancer patients undergoing chemoradiation therapy; Anderson 2015; cited from earlier work
[16] = 24 μM GC4419, both cancer cell lines
[17] = 10 mg/kg GC4419 daily from 4 days prior to 10 mg/kg cisplatin, 72 hours after cisplatin, FIG. 10A
[18] = 1 μM cisplatin or cisplatin plus 6 Gy IR

In the case of `[Cl-].[Cl-].[Mn+2].c1cc2nc(c1)CN[C@@H]1CCCC[C@H]1NCCN[C@@H]1CCCC[C@H]1NC2` [GC4403], the “injury to the colon” value [1] is listed as “very significantly reduce the injury to the colon”, the radiation damage [2] is listed as “attenuate the radiation damage” and the radiation damage [3] is listed as “attenuate the radiation damage”. For the same molecule, the inflammation (inflammation) was “inhibit inflammation” and the joint disease [4] was “prevent joint disease”.
In the case of `[Cl][Mn][Cl].c1cc2nc(c1)CN[C@H]1CCCC[C@@H]1NCCN[C@H]1CCCC[C@@H]1NC2` [GC4419], the “surviving fraction of cells” value [5] is reported as “decreased the surviving fraction of H460 cells”, the “surviving fraction of cells” value ([6]; with CAT overexpression (doxycycline induced)) is reported as “abrogated the GC4419 contribution to cisplatin response” and the “surviving fraction of cells” value ([6]; without CAT overexpression (wt), vs cisplatin alone) is reported as “decreased the surviving fraction”. For the same molecule, the “PARP activity (ratio of 89 kd active form to 116 kd inactive form)” value ([7]; 24 μM GC4419 added to 1 μM cisplatin, vs cisplatin, FIG. 3) was “further and significantly (p<0.01) increased PARP activity”, the “PARP activity (ratio of 89 kd active form to 116 kd inactive form)” value ([7]; 24 μM GC4419 added to 6 Gy IR + 1 μM cisplatin, FIG. 5) was “significantly increased (p<0.01)” and the “PARP activity (ratio of 89 kd active form to 116 kd inactive form)” value ([7]; 24 μM GC4419 added to 6 Gy IR, vs radiation alone, FIG. 5) was “significantly increased PARP activity over that seen with radiation alone”. The “PARP activity (ratio of 89 kd active form to 116 kd inactive form)” value ([8]; 24 μM GC4419 added to 10 μM cisplatin, vs cisplatin, FIG. 4) was “further and significantly p<0.01) increased PARP activity”, the “PARP activity (ratio of 89 kd active form to 116 kd inactive form)” value ([8]; 24 μM GC4419 added to 6 Gy IR + 1 μM cisplatin, FIG. 6A) was “significantly increased (p<0.0.05)” and the “PARP activity (ratio of 89 kd active form to 116 kd inactive form)” value ([8]; 24 μM GC4419 added to 6 Gy IR, vs radiation alone, FIG. 6A) was “significantly increased PARP activity over that seen with radiation alone”. For the same molecule, the “PARP activation response to cisplatin” value (PARP in H1299CAT cells; 24 μM GC4419 + 1 μM cisplatin, p<0.01, FIG. 6B) was “reduced the PARP activation response”, the “PARP activation response to IR+cisplatin” value (PARP in H1299CAT cells; 24 μM GC4419 + 6 Gy IR + 1 μM cisplatin, p<0.001, FIG. 6C) was “reduced the PARP activation response” and the “PARP activation response to IR” value (PARP in H1299CAT cells; 24 μM GC4419 + 6 Gy IR, p<0.05, FIG. 6C) was “reduced the PARP activation response”. For the same molecule, the “total ROS (CellROX signal)” value ([9]; 24 μM GC4419 added to cisplatin therapy) was “synergistic effect on total ROS”, the “total ROS (CellROX signal)” value ([9]; 24 μM GC4419 used alone, either cancer cell line) was “little effect on total ROS” and the “basal levels of mitochondrial superoxide (MitoSOX signal)” value [10, 16] was “significantly reduced the basal levels of mitochondrial superoxide”. For the same molecule, the “mitochondrial superoxide (MitoSOX signal)” value ([10]; 24 μM GC4419 added to cisplatin or cisplatin plus IR) was “significantly reduced the increase in mitochondrial superoxide”, the “basal levels of H2O2” value [11, 16] was “significantly increases both the basal levels of H2O2” and the H2O2 ([11]; 24 μM GC4419 added to cisplatin or cisplatin plus IR, both cancer cell lines) was “significantly further increases the increase in H2O2”. The survival ([12]; 10 mg/kg GC4419 daily + 10 mg/kg cisplatin, old mice, FIG. 10D) was “prevented cisplatin mortality in the old mice”, the body weight ([12]; 10 mg/kg GC4419 daily + 10 mg/kg cisplatin, young and old mice, FIG. 10C) was “reduced the amount of weight loss in both sets of mice” and the “kidney injury biomarkers KIM1 and NGAL” value ([12]; 10 mg/kg GC4419 daily + 10 mg/kg cisplatin, FIG. 10B) was “prevented that injury”. The creatinine level [12, 17] was “completely prevented these increases”, the “whole blood urea nitrogen (BUN) level” value [12, 17] was “completely prevented these increases” and the “leukocyte (WBC) and lymphocyte count” value ([13]; 2 days and 2 weeks after the end of treatment, FIG. 11B) was “stimulated leukocyte (WBC) and proportionally lymphocyte subset production”. The neutrophil percentage ([13]; FIG. 11C) was “maintained neutrophil percentage at apparently normal levels”, the eosinophil percentage ([13]; FIG. 11D) was “maintained eosinophil percentage at apparently normal levels” and the platelets ([13]; two days after the end of treatments, FIG. 11A) was “significantly restored platelet levels”. The “VEGFr inhibitor-induced pulmonary disease” value [14] was “attenuate VEGFr inhibitor-induced pulmonary disease” and the oral mucositis [15] was “reduce oral mucositis”.
In the case of `N.N.[Cl][Pt][Cl]` [cisplatin, reference compound], the “total ROS (CellROX signal)” value [9, 18] is reported as “increased total ROS”, the “mitochondrial superoxide (MitoSOX signal)” value [10, 18] is reported as “increase in mitochondrial superoxide” and the H2O2 [11, 18] is reported as “increase in H2O2”.
